From PubChem BioAssay (NCI)
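96-well plates; 48 h exposure; 5 concentrations. Endpoints by linear interpolation between flanking doses. Not reached: highest tested concentration assigned. GI50 = concentration required for 50% inhibition of growth. TGI denotes the concentration required for complete inhibition of growth.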

What was measured:
Test in all cases: DTP human tumour cell line panel, 48 h
[1] = tested on: SK-MEL-5 melanoma
[2] = tested on: SK-MEL-2 melanoma
[3] = tested on: T-47D breast
[4] = tested on: RXF 393 renal
[5] = tested on: BT-549 breast
[6] = tested on: CAKI-1 renal
[7] = tested on: MDA-MB-435
[8] = tested on: NCI/ADR-RES ovarian
[9] = tested on: SF-539 CNS
[10] = tested on: NCI-H23 lung
[11] = tested on: MOLT-4 leukemia
[12] = tested on: SW-620 colon
[13] = tested on: SK-OV-3 ovarian
[14] = tested on: ACHN renal
[15] = tested on: UO-31 renal
[16] = tested on: A498 renal
[17] = tested on: CCRF-CEM leukemia
[18] = tested on: DU-145 prostate
[19] = tested on: HOP-92 NSCLC
[20] = tested on: K-562 leukemia
[21] = tested on: U251 CNS
[22] = tested on: SNB-19 CNS
[23] = tested on: 786-0 renal
[24] = tested on: HOP-62 NSCLC
[25] = tested on: HT29 colon
[26] = tested on: SR leukemia
[27] = tested on: SK-MEL-28 melanoma
[28] = tested on: RPMI-8226 leukemia
[29] = tested on: OVCAR-5 ovarian
[30] = tested on: MALME-3M melanoma
[31] = tested on: OVCAR-8 ovarian
[32] = tested on: MCF7 breast
[33] = tested on: SNB-75 CNS
[34] = tested on: NCI-H460 lung
[35] = tested on: HCT-116 colon
[36] = tested on: NCI-H522 lung
[37] = tested on: UACC-257 melanoma
[38] = tested on: SF-295 CNS
[39] = tested on: HS 578T breast
[40] = tested on: SN12C renal
[41] = tested on: LOX IMVI melanoma
[42] = tested on: IGROV1 ovarian
[43] = tested on: COLO 205 colon
[44] = tested on: HCT-15 colon
[45] = tested on: M14 melanoma
[46] = tested on: KM12 colon
[47] = tested on: HCC-2998 colon
[48] = tested on: A549 NSCLC
[49] = tested on: MDA-MB-231 breast
[50] = tested on: NCI-H226 lung
[51] = tested on: UACC-62 melanoma
[52] = tested on: MDA-MB-468 breast
[53] = tested on: PC-3 prostate
[54] = tested on: TK-10 renal
[55] = tested on: OVCAR-4 ovarian
[56] = tested on: SF-268 CNS
[57] = tested on: OVCAR-3 ovarian
[58] = tested on: HL-60(TB) leukemia
[59] = tested on: EKVX NSCLC

NS(=O)(=O)c1ccc(Nc2nc(N/N=C/c3cc(Br)c(O)c(Br)c3)nc(Nc3ccccc3)n2)cc1
GI50 [1]: 14.9 µM
TGI [1]: 28.6 µM
GI50 [2]: 15.7 µM
TGI [2]: 38.1 µM
GI50 [3]: 7.39 µM
TGI [3]: 27.3 µM
GI50 [4]: 14.7 µM
TGI [4]: 32.8 µM
GI50 [5]: 16.8 µM
TGI [5]: 42.7 µM
GI50 [6]: 24 µM
TGI [6]: 85.7 µM
GI50 [7]: 17.8 µM
TGI [7]: 40.6 µM
GI50 [8]: > 100 µM
TGI [8]: > 100 µM
GI50 [9]: 17.9 µM
TGI [9]: 41.3 µM
GI50 [10]: 20.9 µM
TGI [10]: 50.1 µM
GI50 [11]: 19.7 µM
TGI [11]: 52.3 µM
GI50 [12]: 17.2 µM
TGI [12]: 42.4 µM
GI50 [13]: 21.3 µM
TGI [13]: 61.9 µM
GI50 [14]: 24.8 µM
TGI [14]: 93.8 µM
GI50 [15]: 26.7 µM
TGI [15]: > 100 µM
GI50 [16]: 13.3 µM
TGI [16]: 36.6 µM
GI50 [17]: 11.1 µM
TGI [17]: 41.6 µM
GI50 [18]: 16.1 µM
TGI [18]: 30.2 µM
GI50 [19]: 26.7 µM
TGI [19]: 81.2 µM
GI50 [20]: 23.4 µM
TGI [20]: > 100 µM
GI50 [21]: 20 µM
TGI [21]: 71 µM
GI50 [22]: 14.2 µM
TGI [22]: 27.7 µM
GI50 [23]: 15.1 µM
TGI [23]: 44.3 µM
GI50 [24]: 21.3 µM
TGI [24]: 58.9 µM
GI50 [25]: 19.6 µM
TGI [25]: 49.1 µM
GI50 [26]: 15.9 µM
TGI [26]: > 100 µM
GI50 [27]: 18.1 µM
TGI [27]: 40.6 µM
GI50 [28]: 22.8 µM
TGI [28]: 93.5 µM
GI50 [29]: 22.7 µM
TGI [29]: 62.6 µM
GI50 [30]: 14.7 µM
TGI [30]: 34.8 µM
GI50 [31]: 26.9 µM
TGI [31]: > 100 µM
GI50 [32]: 16.9 µM
TGI [32]: 45.4 µM
GI50 [33]: 18.6 µM
TGI [33]: 61.7 µM
GI50 [34]: 19.6 µM
TGI [34]: 60.1 µM
GI50 [35]: 17.7 µM
TGI [35]: 38.9 µM
GI50 [36]: 16.8 µM
TGI [36]: 42.4 µM
GI50 [37]: 20.6 µM
TGI [37]: 47.9 µM
GI50 [38]: 22.2 µM
TGI [38]: 60.2 µM
GI50 [39]: 7.76 µM
TGI [39]: 81.3 µM
GI50 [40]: 15.6 µM
TGI [40]: 32.1 µM
GI50 [41]: 15.8 µM
TGI [41]: 30.4 µM
GI50 [42]: 18.5 µM
TGI [42]: 42.2 µM
GI50 [43]: 16 µM
TGI [43]: 29.8 µM
GI50 [44]: 32.3 µM
TGI [44]: > 100 µM
GI50 [45]: 18.8 µM
TGI [45]: 45.7 µM
GI50 [46]: 17.5 µM
TGI [46]: 37.1 µM
GI50 [47]: 14.8 µM
TGI [47]: 29.2 µM
GI50 [48]: 21.8 µM
TGI [48]: 67.5 µM
GI50 [49]: 17.2 µM
TGI [49]: 47.4 µM
GI50 [50]: 26.5 µM
TGI [50]: 98.2 µM
GI50 [51]: 14.5 µM
TGI [51]: 28.3 µM
GI50 [52]: 2.94 µM
TGI [52]: 15.5 µM
GI50 [53]: 19.5 µM
TGI [53]: 55.2 µM
GI50 [54]: 27.7 µM
TGI [54]: 87 µM
GI50 [55]: 23.2 µM
TGI [55]: 81.4 µM
GI50 [56]: 19.9 µM
TGI [56]: 58.6 µM
GI50 [57]: 21.4 µM
TGI [57]: 63.1 µM
GI50 [58]: 22 µM
TGI [58]: 60.9 µM
GI50 [59]: 21.4 µM
TGI [59]: 69.2 µM
